Measured values published in patent publication US20060228752A1, “Genetic polymorphisms in the preprotachykinin gene” (priority 2002, published 2006).

How the values were obtained:
Format in all cases: in vivo, human
[1] = tested on: apomorphine-induced vomiting and retching; assay: Emesis test (apomorphine challenge), Single Ascending Dose study (SAD)
Description: (§1) The described emesis test was performed in two studies. A Single Ascending Dose study (SAD) and a Multiple Ascending Dose study (MAD). In the SAD the emesis test was performed 6 and/or 24 hrs after intake of 2-(3,5-bis-trifluoromethyl-phenyl)-N-methyl-N-(6-morpholin-4-yl-4-o-tolyl-pyridin-3-yl)-isobutyramide. In the MAD the emesis test was performed after 14 once daily doses, 6 or 24 hrs after the last dose.
In the SAD on study day 1 doses of 5, 10, 20, 40, 80, 160, 230 and 400 mg 2-(3,5-bis-trifluoromethyl-phenyl)-N-methyl-N-(6-morpholin-4-yl-4-o-tolyl-pyridin-3-yl)-isobutyramide were administered to the subjects orally as a drinking emulsion. At either 6 or 24 hours after the administration of the drug the subjects received a subcutaneous injection of 50 μg/kg of apomorphine in the lower part of the abdomen. The time of apomorphine administration was recorded. The subjects were brought into an upright sitting position immediately after the injection. They remained in this position until vomiting occurred or for at least 1 hour after the apomorphine injection. Vomiting is defined as regurgitation of approximately 25 ml or more of gastric contents. A retch is defined as a regurgitation producing less or no gastric content.
Nausea and/or vomiting was expected to occur on average within 10 minutes after the injection. […] The number of vomits and retches were recorded. […]

[2] = tested on: apomorphine-induced vomiting and retching; assay: Emesis test (apomorphine challenge), Multiple Ascending Dose study (MAD); conditions: 14 once daily doses, test on day 14, 6 or 24 hrs after last dose
Description: as §1, with “dose. Subjects were dosed for 14 days with 2-(3,5-bis-trifluoromethyl-phenyl)-N-methyl-N-(6-morpholin-4-yl-4-o-tolyl-pyridin-3-yl)-isobutyramide. On day 14 the test was carried out as described in the SAD.” for “dose.”

[3] = tested on: apomorphine-induced vomiting and retching; assay: Emesis test response by NKNA position 41172 genotype (SAD and MAD participants); conditions: plasma concentration >20 ng/ml; responder = ≦3 retches and vomits
Description: FIG. 4: 2×2 Contingency table for 29 position 41172 genotype test results with concentration before emesis test >20 ng/ml 2-(3,5-bis-trifluoromethyl-phenyl)-N-methyl-N-(6-morpholin-4-yl-4-o-tolyl-pyridin-3-yl)-isobutyramide. Effect=yes: number of vomits+retches≦3. Fisher's Exact Test (two-sided): p=0.033. The genotypes of the subjects were classified according to the following categories: 0-2 are allele 2 (nucleotide G) homozygotes (two copies of allele 2, no copies of allele 1); not 0-2 include allelel (nucleotide A) homozygotes 2-0 (two copies of allele 1, no copies of allele 2) and heterozygotes 1-1 (one copy of allele 1 and one copy of allele 2).
Three genetic markers were selected based on the results from polymorphism discovery in the NKNA gene. Samples were genotyped for these single nucleotide polymorphisms by a kinetic PCR method described by Germer et al., Genome Res. (2000), 10, 258-266 with the modification of using single sample for each reaction instead of pooling samples. This method allows discrimination of single nucleotide polymorphisms without the use of fluorescent probes.
All participants of the SAD and MAD were tested for the single nucleotide polymorphism at position 41172 of the NKNA gene as defined by position in FIG. 2.

## Cc1ccccc1-c1cc(N2CCOCC2)ncc1N(C)C(=O)C(C)(C)c1cc(C(F)(F)F)cc(C(F)(F)F)c1 [2-(3,5-bis-trifluoromethyl-phenyl)-N-methyl-N-(6-morpholin-4-yl-4-o-tolyl-pyridin-3-yl)-isobutyramide]
[1]; apomorphine 50 μg/kg s.c. 6 or 24 hrs after oral drug
  average number of retches and vomits at the plateau reached with the blockade: 3
[1]; oral drinking emulsion 5-400 mg, apomorphine 50 μg/kg s.c. 6 or 24 hrs after drug, efficacy = plateau of 3 retches and vomits
  plasma concentration at which efficacious levels are reached (minimal concentration to achieve efficacy): 20 ng/mL
[2]
  emesis test result in MAD: consistent with the SAD
[3]
  response to treatment of subjects with G at position 41172 of the NKNA gene versus subjects without it or heterozygous: responding with a higher efficacy
